In patent US6844342B2, “Heterocyclic substituted 2-methyl-benzimidazole antiviral agents” (Bristol-Myers Squibb Company, priority 2000, dated 2005) one finds cell protection and EC50 data, which are given here for 1 compound.

In the assay the test system is respiratory syncytial virus Long strain. As to the kind of experiment: Antiviral activity against respiratory syncytial virus in HEp-2 cells (MTT cell protection). In kind it is cell-based. On the procedure:
The antiviral activity of these compounds against respiratory syncytial virus was determined in HEp-2 (ATCC CCL 23) cells that were seeded in 96 well microtiter plates at 1.5×10^4 cells/100 μL/well in DMEM (Dulbecco's Modified Eagle's Medium) supplemented with penicillin, streptomycin, glutamine, and 10% fetal bovine serum. The cells were incubated overnight at 37° C., the culture medium was removed, and cells were infected (100 μL volume in medium containing 2% fetal bovine serum) with respiratory syncytial virus Long strain at 5000 plaque forming units/mL. The compounds, 100 μL at appropriate dilution, were added to the cells 1 hour post infection. After incubation for 4 days at 37° C., the plates were stained with MTT solution (3-[4,5-dimethlythiazol-2-yl]-2,5-diphenyltetrazolium bromide) and incubated for 4 hours at 37° C. The media was aspirated from the cells and 100 μL/well of acidified isopropanol (per liter: 900 mL isopropanol, 100 mL Triton X100, and 4 mL conc. HCl) was added. Plates were incubated for 15 minutes at room temperature with shaking, and an optical density (OD 540) reading at 540 nanometer (nm) was obtained. The optical density reading is proportional to the number of viable cells. The increase in the number of viable cells reflects the protective, antiviral activity of the compound. […]

`NC(=O)c1ncn([C@@H]2O[C@H](CO)[C@@H](O)[C@H]2O)n1` [Ribavirin]: the cell protection (at 2.5 μg/mL (corresponding to 10.2 μM), HEp-2 cells, RSV Long strain) is 100%. For the same compound, for the setting “human respiratory syncytial virus, HEp-2 cells infected with RSV Long strain, compound added 1 hour post infection, 4 days at 37° C., read-out: EC50 (concentration that produces 50% cell protection)”, the EC50 is 3000 nM.
